Like-named read-outs stand apart in the source and are kept apart here. Where a SMILES comes first, the peptide text is derived from it. Where no end group is shown, it is not given here. [ ]: non-standard residue; d: D form.
Tested on: MCF-7 cells
Format: cell-based
Source text: These peptides were compared to full length LPA-1 with respect to their abilities to inhibit leptin-induced cell growth. […] The same approach was employed with LPA-2 creating […] of the leptin molecule). […] Another LPA-2 scrambled peptide that may be used is […] NO: 3]. […] Retro-inverso peptides are peptides constructed with the reverse sequence and containing all D-amino acids. […] Retro-inverso LPA-1(24-6) sequence […] NO: 31] and retro-inverso LPA-2(89-72) […] NO: 32]. […] Studies were carried out using both MCF-7 and HT-29 cells. […] MCF-7 and HT-29 cells were cultured in DMEM-F12 medium containing 5% fetal bovine serum (FBS), 5 μg/ml insulin, 1% amphopthericin B, 100 μg/ml streptomycin and 100 U/ml penicillin until they were 80% confluent. The cells were washed twice with 100 mM phosphate saline buffer (PBS), pH 7.2 and cultured for additional 2 days in the same medium but without FBS (basal medium). Cells were washed as described before and cultured in basal medium containing the leptin peptides of the present invention or controls as described above.

[1] = Table 1, L-amino acid peptides, cell line not named in Table 1 (same values in Table 2 are for MCF-7), read-out: IC50 values
[2] = Table 2, MCF-7 cells, read-out: IC50 values

| Compound | IC50 [nM] | IC50 [1] [nM] | IC50 [2] [nM] |
| --- | --- | --- | --- |
| CC[C@@H](C)[C@@H](NC(=O)[C@@H](CO)NC(=O)[C@@H](CC(N)=O)NC(=O)[C@@H](CC(=O)O)NC(=O)[C@@H](CC(C)C)NC(=O)[C@@H](CCC(=O)O)NC(=O)[C@@H](CC(N)=O)NC(=O)[C@@H](CC(C)C)NC(=O)[C@@H](CCCNC(=N)N)NC(=O)[C@@H](CC(=O)O)NC(=O)[C@@H](CC(C)C)NC(=O)[C@@H](CC(C)C)NC(=O)[C@@H](Cc1c[nH]cn1)NC(=O)[C@H](N)C(C)C)C(=O)N[C@H](CCC(N)=O)C(=O)N[C@@H](C(=O)N[C@@H](C(=O)N[C@H](CC(N)=O)C(N)=O)C(C)C)[C@H](C)CC [D-D79(1), VHLLDRLNELDNSIQIVN] (H-[dV][dH][dL][dL][dD][dR][dL][dN][dE][dL][dD][dN][dS][dI][dQ][dI][dV][dN]-NH2) | 19.4 | – | – |
| CC[C@@H](C)[C@@H](N)C(=O)N[C@H](CC(=O)O)C(=O)N[C@H](CC(N)=O)C(=O)N[C@@H](C(=O)N[C@H](CCCNC(=N)N)C(=O)N[C@@H](C(=O)N[C@@H](C(=O)N[C@@H](C(=O)N[C@@H](C(=O)N[C@H](CCCCN)C(=O)N[C@@H](C(=O)N[C@H](CC(C)C)C(=O)N[C@@H](C(=O)N[C@H](CCCCN)C(=O)N[C@@H](C(=O)N[C@H](CC(=O)O)C(=O)N[C@H](CC(=O)O)C(=O)N[C@H](CCC(N)=O)C(=O)N[C@@H](C(N)=O)C(C)C)[C@H](C)CC)[C@H](C)O)[C@H](C)CC)[C@H](C)O)[C@H](C)CC)C(C)C)[C@H](C)O)[C@H](C)CC [D-I10] (H-[dI][dD][dN][dI][dR][dT][dV][dI][dT][dK][dI][dL][dT][dK][dI][dD][dD][dQ][dV]-NH2) | 17.6 | – | – |
| CC[C@@H](C)[C@@H](NC(=O)[C@@H](CC(C)C)NC(=O)[C@@H](CCC(=O)O)NC(=O)[C@@H](CC(N)=O)NC(=O)[C@@H](CC(C)C)NC(=O)[C@@H](CCCNC(=N)N)NC(=O)[C@@H](CC(=O)O)NC(=O)[C@@H](CC(C)C)NC(=O)[C@@H](CC(C)C)NC(=O)[C@@H](Cc1c[nH]cn1)NC(=O)[C@H](N)C(C)C)C(=O)N[C@H](CC(N)=O)C(=O)N[C@H](CO)C(=O)N[C@@H](C(=O)N[C@H](CCC(N)=O)C(=O)N[C@@H](C(=O)N[C@@H](C(=O)N[C@H](CC(N)=O)C(N)=O)C(C)C)[C@H](C)CC)[C@H](C)CC [D-I79] (H-[dV][dH][dL][dL][dD][dR][dL][dN][dE][dL][dI][dN][dS][dI][dQ][dI][dV][dN]-NH2) | 9.7 | – | – |
| CC[C@@H](C)[C@@H](N)C(=O)N[C@H](CC(=O)O)C(=O)N[C@H](CC(N)=O)C(=O)N[C@@H](C(=O)N[C@H](CCCNC(=N)N)C(=O)N[C@@H](C(=O)N[C@@H](C(=O)N[C@@H](C(=O)N[C@@H](C(=O)N[C@H](CCCCN)C(=O)N[C@@H](C(=O)N[C@H](CC(C)C)C(=O)N[C@@H](C(=O)N[C@H](CCCCN)C(=O)N[C@H](CC(C)C)C(=O)N[C@H](CC(=O)O)C(=O)N[C@H](CC(=O)O)C(=O)N[C@H](CCC(N)=O)C(=O)N[C@@H](C(N)=O)C(C)C)[C@H](C)O)[C@H](C)CC)[C@H](C)O)[C@H](C)CC)C(C)C)[C@H](C)O)[C@H](C)CC [D-L10] (H-[dI][dD][dN][dI][dR][dT][dV][dI][dT][dK][dI][dL][dT][dK][dL][dD][dD][dQ][dV]-NH2) | 11.8 | – | – |
| CC[C@@H](C)[C@@H](NC(=O)[C@@H](CO)NC(=O)[C@@H](CC(N)=O)NC(=O)[C@@H](CC(C)C)NC(=O)[C@@H](CC(C)C)NC(=O)[C@@H](CCC(=O)O)NC(=O)[C@@H](CC(N)=O)NC(=O)[C@@H](CC(C)C)NC(=O)[C@@H](CCCNC(=N)N)NC(=O)[C@@H](CC(=O)O)NC(=O)[C@@H](CC(C)C)NC(=O)[C@@H](CC(C)C)NC(=O)[C@@H](Cc1c[nH]cn1)NC(=O)[C@H](N)C(C)C)C(=O)N[C@H](CCC(N)=O)C(=O)N[C@@H](C(=O)N[C@@H](C(=O)N[C@H](CC(N)=O)C(N)=O)C(C)C)[C@H](C)CC [D-L79] (H-[dV][dH][dL][dL][dD][dR][dL][dN][dE][dL][dL][dN][dS][dI][dQ][dI][dV][dN]-NH2) | 18.7 | – | – |
| CC[C@@H](C)[C@@H](N)C(=O)N[C@H](CC(=O)O)C(=O)N[C@H](CC(N)=O)C(=O)N[C@@H](C(=O)N[C@H](CCCNC(=N)N)C(=O)N[C@@H](C(=O)N[C@@H](C(=O)N[C@@H](C(=O)N[C@@H](C(=O)N[C@H](CCCCN)C(=O)N[C@@H](C(=O)N[C@H](CC(C)C)C(=O)N[C@@H](C(=O)N[C@H](CCCCN)C(=O)N[C@@H](C(=O)N[C@H](CC(=O)O)C(=O)N[C@H](CC(=O)O)C(=O)N[C@H](CCC(N)=O)C(=O)N[C@@H](C(N)=O)C(C)C)[C@H](C)O)[C@H](C)O)[C@H](C)CC)[C@H](C)O)[C@H](C)CC)C(C)C)[C@H](C)O)[C@H](C)CC [D-T10(1), IDNIRTVITKILTKTDDQV] (H-[dI][dD][dN][dI][dR][dT][dV][dI][dT][dK][dI][dL][dT][dK][dT][dD][dD][dQ][dV]-NH2) | 16.9 | – | – |
| CC[C@@H](C)[C@@H](N)C(=O)N[C@H](CC(=O)O)C(=O)N[C@H](CC(N)=O)C(=O)N[C@@H](C(=O)N[C@H](CCCNC(=N)N)C(=O)N[C@@H](C(=O)N[C@@H](C(=O)N[C@@H](C(=O)N[C@@H](C(=O)N[C@H](CCCCN)C(=O)N[C@@H](C(=O)N[C@H](CC(C)C)C(=O)N[C@@H](C(=O)N[C@H](CCCCN)C(=O)N[C@@H](C(=O)N[C@H](CC(=O)O)C(=O)N[C@H](CC(=O)O)C(=O)N[C@H](CCC(N)=O)C(=O)N[C@@H](C(N)=O)C(C)C)C(C)C)[C@H](C)O)[C@H](C)CC)[C@H](C)O)[C@H](C)CC)C(C)C)[C@H](C)O)[C@H](C)CC [D-V10] (H-[dI][dD][dN][dI][dR][dT][dV][dI][dT][dK][dI][dL][dT][dK][dV][dD][dD][dQ][dV]-NH2) | 17.4 | – | – |
| CC[C@@H](C)[C@@H](NC(=O)[C@@H](CO)NC(=O)[C@@H](CC(N)=O)NC(=O)[C@H](NC(=O)[C@@H](CC(C)C)NC(=O)[C@@H](CCC(=O)O)NC(=O)[C@@H](CC(N)=O)NC(=O)[C@@H](CC(C)C)NC(=O)[C@@H](CCCNC(=N)N)NC(=O)[C@@H](CC(=O)O)NC(=O)[C@@H](CC(C)C)NC(=O)[C@@H](CC(C)C)NC(=O)[C@@H](Cc1c[nH]cn1)NC(=O)[C@H](N)C(C)C)C(C)C)C(=O)N[C@H](CCC(N)=O)C(=O)N[C@@H](C(=O)N[C@@H](C(=O)N[C@H](CC(N)=O)C(N)=O)C(C)C)[C@H](C)CC [D-V79] (H-[dV][dH][dL][dL][dD][dR][dL][dN][dE][dL][dV][dN][dS][dI][dQ][dI][dV][dN]-NH2) | 13.6 | – | – |
| IQKVQDDTKTLIKTIVTRINDISHTQSVSSKQ-NH2 [Full-length LPA-1 (3-34), reference compound] | – | 39.1 | 39.1 |
| NVIQISNALENLRDLLHV-NH2 | 54 | – | – |
| NVIQISNDLENLRDLLHV-NH2 [D79 (original amino acid)] | 32 | – | – |
| NVIQISNILENLRDLLHV-NH2 | 16 | – | – |
| NVIQISNLLENLRDLLHV-NH2 | 16 | – | – |
| NVIQISNVLENLRDLLHV-NH2 | 15.6 | – | – |
| SRNVIQISNDLENLRDLLHVLAFSKS-NH2 [Full-length LPA-2 (70-95), reference compound] | – | 33 | 33 |
| VQDDAKTLIKTIVTRINDI-NH2 | 88 | – | – |
| VQDDIKTLIKTIVTRINDI-NH2 | 21 | – | – |
| VQDDTKTLIKTIVTRINDI-NH2 [T10 (original amino acid)] | 25.7 | – | – |
| VQDDVKTLIKTIVTRINDI-NH2 | 20.7 | – | – |

— patent US20120245104A1, “NOVEL RETRO-INVERSO LEPTIN PEPTIDE ANTAGONISTS” (priority 2011, published 2012)
